Experiments:
[1] = in vitro; conditions: rabbit, Ptot (apparent permeability coefficient) [corneal permeability]
[2] = corneal permeability, literature value; cited from earlier work

SMILES | Papp at 120 min, 100 mM [1] | Ptot [2]
CC(CO)(CO)[N+](=O)[O-] [MNPD, 2-methyl-2-nitro-1,3-propanediol] | 4.37 ×10⁻⁶ cm/s | –
OC[C@@H](O)[C@@H](O)[C@H](O)[C@H](O)CO [mannitol] | – | 2.4 ×10⁻⁶ cm/s

Source: article PMC3493702 (Cornea, 2013)
